The results in this text go back to US12410187B2, “Fused tricyclic compounds useful as anticancer agents” (ASTRAZENECA AB, priority 2019, dated 2025).

In the assay the target is T1, KRasG12C (Homo sapiens, UniProt P01116, G12C).
T1 construct: biotin (biotinylated); made in house
The assay is described as follows: KRasG12C functional assay (HTRF/FRET nucleotide exchange and Raf RBD binding). Format: biochemical. The following applies: samples incubated for 4 hrs, FRET readout, single experiment or average of two or more. As for the experimental part: All enzyme and substrate solutions were prepared in assay buffer containing 20 mM HEPES (pH 7.5), 5 mM MgCl2, 150 mM NaCl, and 0.01% Tween 20. […] In a separate mix 20 nM GST-Raf Ras binding domain (GST-Raf RBD, purified in house) and 4 μg/ml anti-GST XL665 antibody (Cisbio) was prepared in assay buffer containing 50 mM Potassium Fluoride and 0.05 mg/ml BSA and equilibrated for 4 hours before adding 0.6 μM Guanosine 5′-[γ-thio]triphosphate (GTPγS, Sigma) and 0.08 μM SOS (purified in house). 5 μl of the GST-RAF RBD mix was then dispensed into each well of the assay plate. […] This is detected simultaneously via the specific binding interaction between active GTPγS KRas^G12C with GST-Raf RBD which brings the europium and XL665 into close proximity enabling an increased FRET signal to be detected on a Pherastar (BMG) plate reader equipped with the HTRF filter module. […] IC50 values were calculated from normalised dose-response response FRET data curve fitted in Genedata screener (Basel, Switzerland).

Where [1] appears, read: GDP loaded biotinylated KRasG12C, read-out: KRasG12C functional assay IC50.
Setting [2] is: KRasG12C functional assay IC50, GDP loaded biotinylated KRasG12C.

Read-outs that look alike come from different tables or passages of the source.

T1 sequence (P01116 1-188 isoform P01116-2 G12C): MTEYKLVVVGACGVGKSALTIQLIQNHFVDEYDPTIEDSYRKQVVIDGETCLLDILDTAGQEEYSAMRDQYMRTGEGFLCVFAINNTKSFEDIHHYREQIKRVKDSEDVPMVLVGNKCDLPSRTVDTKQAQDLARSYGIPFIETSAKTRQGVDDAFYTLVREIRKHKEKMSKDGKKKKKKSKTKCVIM

In general, IC50 refers to the midpoint of a concentration-inhibition curve. Turning to `C=CC(=O)N1CCN2Cc3c(c(Cl)c(-c4c(O)cccc4F)n4cnnc34)OC[C@H]2C1` (single isomer, unassigned) [Example 71], the IC50 under setting [1] was 0.539 µM.

On to `C=CC(=O)N1CCN2Cc3cc(F)c(-c4c(O)cccc4Br)c(F)c3OC[C@H]2C1` (single isomer, unassigned) [Example 58], for which, under setting [1], the IC50 was 11.8 µM.

Take `C=CC(=O)N1CCN2Cc3c(c(Cl)c(-c4c(O)cccc4Cl)c4ncn(C)c34)OC[C@H]2C1` (single isomer, unassigned) [Example 82]: the IC50 under setting [1] came to 0.061 µM.

As to `C=CC(=O)N1CCN2Cc3cc(F)c(-c4c(O)cccc4C(F)(F)F)c(F)c3OC[C@H]2C1` (single isomer, unassigned) [Example 48], the IC50 under setting [1] came out at 42.7 µM.

Take `C=CC(=O)N1CCN2Cc3cc(C#N)c(-c4c(O)cccc4Cl)c(Cl)c3OC[C@H]2C1` (single isomer, unassigned) [Example 56]: the half-inhibitory concentration (IC50) under setting [1] is 1.7 µM.

Under setting [2], `C=CC(=O)N1CCN2Cc3cc(OC4CC4)c(-c4c(O)cccc4Cl)c(F)c3OC[C@H]2C1` (single isomer, unassigned) [Example 100] showed a 50% inhibitory concentration (IC50) of 0.08 µM.

For `C=CC(=O)N1CCN2Cc3cc(F)c(-c4c(O)cccc4CC)c(F)c3OC[C@H]2C1` (single isomer, unassigned) [Example 51], the IC50 under setting [1] amounted to 0.542 µM.

With `C=CC(=O)N1CCN2Cc3cc(F)c(-c4c(C)ccc5[nH]cnc45)c(Cl)c3OC[C@H]2C1` (single isomer, unassigned) [Example 18], under setting [1], the IC50 was determined as 28.7 µM.

With `C=CC(=O)N1CCN2Cc3cc(F)c(-c4c(F)cccc4CO)c(F)c3OC[C@H]2C1` (single isomer, unassigned) [Example 46], under setting [1], the IC50 worked out at 99.5 µM.

As for `C=CC(=O)N1CCN2Cc3cc(C#N)c(-c4c(C)cccc4O)c(Cl)c3OC[C@H]2C1` (single isomer, unassigned) [Example 40], the half-inhibitory concentration (IC50) under setting [1] was found to be 4.62 µM.

`C=CC(=O)N1CCN2C(=O)c3cc(F)c(-c4c(O)cccc4F)c(Cl)c3OC[C@H]2C1` (single isomer, unassigned) [Example 12]: the IC50 under setting [1] turned out to be 25.2 µM.

Turning to `C=CC(=O)N1CCN2Cc3cc(F)c(-c4c(C)ccc5cc[nH]c(=O)c45)c(Cl)c3OC[C@H]2C1` (single isomer, unassigned) [Example 29], the IC50 under setting [1] amounted to 0.164 µM.

With `C=CC(=O)N1CCN2Cc3c(C#N)cc(-c4c(O)cccc4F)c(Cl)c3OC[C@H]2C1` [Example 16, (12aR)-10-Chloro-9-(2-fluoro-6-hydroxyphenyl)-2-(prop-2-enoyl)-1,2,3,4,12,12a-hexahydro-6H-pyrazino[2,1-c][1,4]benzoxazepine-7-carbonitrile], the IC50 under setting [1] amounted to 0.43 µM.

Regarding `C=CC(=O)N1CCN2Cc3cc(C#N)c(-c4c(O)cccc4Cl)c(Cl)c3OC[C@H]2C1` (single isomer, unassigned) [Example 57], under setting [1], the half-maximal inhibitory concentration (IC50) came out at 0.031 µM.

As to `C=CC(=O)N1CCN2Cc3cc(F)c(-c4c(O)cccc4CC)c(F)c3OC[C@H]2C1` (single isomer, unassigned) [Example 50], the IC50 under setting [1] was found to be 99.3 µM.

On to `C=CC(=O)N1CCN2Cc3cc(OC)c(-c4c(O)cccc4F)c(Cl)c3OC[C@H]2C1` (single isomer, unassigned) [Example 31], for which, under setting [1], the IC50 amounted to 0.279 µM.

For `C=CC(=O)N1CCN2Cc3c(C#CC)nc(-c4c(O)cccc4Cl)c(Cl)c3OC[C@H]2C1` (single isomer, unassigned) [Example 118], the IC50 under setting [1] is 0.03 µM.

In the case of `C=CC(=O)N1CCN2Cc3cc(C#N)c(-c4c(O)cccc4F)c(Cl)c3OC[C@H]2C1` (single isomer, unassigned) [Example 23], under setting [1], the half-maximal inhibitory concentration (IC50) came to 0.105 µM.

For `C=CC(=O)N1CCN2Cc3c(c(Cl)c(-c4c(O)cccc4F)c4cn(C)nc34)OC[C@H]2C1` (single isomer, unassigned) [Example 75], the IC50 under setting [1] is 50.8 µM.

For `C=CC(=O)N1CCN2Cc3c(c(Cl)c(-c4c(O)cccc4F)n4cnnc34)OC[C@H]2C1` (single isomer, unassigned) [Example 70], the IC50 under setting [1] worked out at 19 µM.

With `C#Cc1c2c(cc(Cl)c1-c1c(C)cccc1O)CN1CCN(C(=O)C=C)C[C@@H]1CO2` (single isomer, unassigned) [Example 63], the IC50 under setting [1] is 0.12 µM.

In the case of `C=CC(=O)N1CCN2Cc3c(-n4cccn4)cc(-c4c(O)cccc4F)c(Cl)c3OC[C@H]2C1` [Example 17, 1-[(12aR)-10-Chloro-9-(2-fluoro-6-hydroxyphenyl)-7-(1H-pyrazol-1-yl)-3,4,12,12a-tetrahydro-6H-pyrazino[2,1-c][1,4]benzoxazepin-2(1H)-yl]prop-2-en-1-one], the IC50 under setting [1] was found to be 0.361 µM.

As for `C=CC(=O)N1CCN2Cc3c(-n4ccnc4)cc(-c4c(O)cccc4F)c(Cl)c3OC[C@H]2C1` [Example 15, 1-[(12aR)-10-Chloro-9-(2-fluoro-6-hydroxyphenyl)-7-(1H-imidazol-1-yl)-3,4,12,12a-tetrahydro-6H-pyrazino[2,1-c][1,4]benzoxazepin-2(1H)-yl]prop-2-en-1-one], under setting [1], the IC50 is 1.28 µM.

For the compound `C=CC(=O)N1CCN2C(=O)c3ccc(-c4c(C)ccc5[nH]ncc45)c(Cl)c3NC[C@H]2C1` (single isomer, unassigned) [Example 33], the IC50 under setting [1] was 0.998 µM.

As for `C=CC(=O)N1CCN2Cc3cc(OCCN4CCCCC4)c(-c4c(O)cccc4Cl)c(F)c3OC[C@H]2C1` (single isomer, unassigned) [Example 108], under setting [1], the IC50 was determined as 0.064 µM.

As for `C=CC(=O)N1CCN2C(=O)c3cc(Cl)c(-c4c(O)cccc4F)c(Cl)c3OC[C@H]2C1` (single isomer, unassigned) [Example 20], the IC50 under setting [1] was found to be 0.043 µM.

Take `C=CC(=O)N1CCN2Cc3cc(C#N)c(-c4c(O)cccc4F)c(Cl)c3OC[C@H]2C1` (single isomer, unassigned) [Example 22]: the IC50 under setting [1] was 2.58 µM.

The compound `C=CC(=O)N1CCN2Cc3cc(C#N)c(-c4c(O)cccc4Cl)c(F)c3OC[C@H]2C1` (single isomer, unassigned) [Example 54] yielded an IC50 under setting [2] of 0.339 µM.

For the compound `C#Cc1nc(-c2c(O)cccc2Cl)c(Cl)c2c1CN1CCN(C(=O)C=C)C[C@@H]1CO2` (single isomer, unassigned) [Example 120], under setting [1], the IC50 was 0.051 µM.

`C=CC(=O)N1CCN2Cc3cc(F)c(-c4c(O)cccc4C(F)F)c(F)c3OC[C@H]2C1` (single isomer, unassigned) [Example 52]: the concentration for half-maximal inhibition (IC50) under setting [1] is above 100 µM.

Regarding `C=CC(=O)N1CCN2Cc3c(OC)cc(-c4c(O)cccc4F)c(Cl)c3OC[C@H]2C1` [Example 5, 1-[(12aR)-10-Chloro-9-(2-fluoro-6-hydroxyphenyl)-7-methoxy-3,4,12,12a-tetrahydro-6H-pyrazino[2,1-c][1,4]benzoxazepin-2(1H)-yl]prop-2-en-1-one], the IC50 under setting [1] amounted to 0.157 µM.

As to `C=CC(=O)N1CCN2Cc3cc(F)c(-c4c(O)cccc4Cl)c(Cl)c3OC[C@H]2C1` (single isomer, unassigned) [Example 34], the IC50 under setting [1] came out at 64.9 µM.

Turning to `C=CC(=O)N1CCN2Cc3cc(F)c(-c4c(C)ccc5cc[nH]c(=O)c45)c(Cl)c3OC[C@H]2C1` (single isomer, unassigned) [Example 28], under setting [1], the IC50 was 17 µM.

On to `C=CC(=O)N1CCN2Cc3cc(F)c(-c4c(C)ccc5[nH]cnc45)c(Cl)c3OC[C@H]2C1` (single isomer, unassigned) [Example 19], for which the 50% inhibitory concentration (IC50) under setting [1] came out at 0.146 µM.

Regarding `C=CC(=O)N1CCN2Cc3cc(OC(F)F)c(-c4c(O)cccc4Cl)c(F)c3OC[C@H]2C1` (single isomer, unassigned) [Example 94], the IC50 under setting [2] worked out at 0.014 µM.

In the case of `C=CC(=O)N1CCN2Cc3c(OCCN(C)C)cc(-c4c(O)cccc4Cl)c(F)c3OC[C@H]2C1` (single isomer, unassigned) [Example 115], under setting [1], the IC50 was found to be 0.055 µM.

For the compound `C=CC(=O)N1CCN2C(=O)c3cc(C)c(-c4c(O)cccc4F)c(Cl)c3OC[C@H]2C1` (single isomer, unassigned) [Example 25], under setting [1], the IC50 turned out to be 0.068 µM.

As for `C=CC(=O)N1CCN2Cc3cc(F)c(-c4c(F)cccc4CO)c(F)c3OC[C@H]2C1` (single isomer, unassigned) [Example 47], under setting [1], the IC50 turned out to be 1.72 µM.

Consider `C=CC(=O)N1CCN2C(=O)c3ccc(-c4c(C)ccc5[nH]ncc45)c(Cl)c3N(C)C[C@H]2C1` (single isomer, unassigned) [Example 36], for which, under setting [1], the IC50 was 98.2 µM.

As to `C=CC(=O)N1CCN2Cc3cc(F)c(-c4c(O)ccc(F)c4F)c(Cl)c3OC[C@H]2C1` (single isomer, unassigned) [Example 38], the IC50 under setting [1] was 40.1 µM.

For the compound `C#Cc1c2c(cc(Cl)c1-c1c(C)cccc1O)CN1CCN(C(=O)C=C)C[C@@H]1CO2` (single isomer, unassigned) [Example 62], the IC50 under setting [1] was 15.7 µM.

For `C=CC(=O)N1CCN2Cc3cc(OCCOC)c(-c4c(O)cccc4Cl)c(Cl)c3OC[C@H]2C1` (single isomer, unassigned) [Example 106], the IC50 under setting [1] amounted to 0.043 µM.

As to `C=CC(=O)N1CCN2C(=O)c3ccc(-c4c(C)ccc5[nH]ncc45)c(Cl)c3N(C)C[C@H]2C1` (single isomer, unassigned) [Example 37], under setting [1], the IC50 is 0.273 µM.

As to `C#Cc1c2c(cc(F)c1-c1c(C)cccc1O)CN1CCN(C(=O)C=C)C[C@@H]1CO2` (single isomer, unassigned) [Example 64], the half-maximal inhibitory concentration (IC50) under setting [1] is 37.1 µM.

Consider `C=CC(=O)N1CCN2Cc3c(c(Cl)c(-c4c(O)cccc4F)n(C)c3=O)OC[C@H]2C1` (single isomer, unassigned) [Example 66], for which the IC50 under setting [1] came to 21 µM.
